Results reported in BindingDB's records for doi:10.1021/jm980511k (Research Triangle Institute, 1999).

What was measured:
[1] = Binding affinity determined on Opioid receptor delta 1 in Guinea pig brain membranes using radioligand [3H]DADLE
[2] = Inhibition of [35S]GTP-gamma-S, binding from Opioid receptor delta 1 in Guinea pig Caudate stimulated by SNC80

Compound	Ki [1] [µM]	Ki [2] [µM]
CC(C)[C@@H](CN1CC[C@@](C)(c2cccc(O)c2)[C@@H](C)C1)NC(=O)CCc1ccc(O)cc1 [3-(4-Hydroxy-phenyl)-N-{1-[4-(3-hydroxy-phenyl)-3,4-dimethyl-piperidin-1-ylmethyl]-2-methyl-propyl}-propionamide]	> 5.7	
C[C@@H]1CN(C/C=C/c2ccccc2)CC[C@]1(C)c1cccc(O)c1 [3-[(3S,4S)-3,4-Dimethyl-1-((E)-3-phenyl-allyl)-piperidin-4-yl]-phenol]	0.322	0.0015
